Measurements: US20200000798A1, “PROCESS FOR […] ALKALOID FRACTION OF R[…] (HERB.) TRAUB AND USES THEREOF” (UNIVERSIDADE FEDERAL DO RIO GRANDE DO SUL-UFRGS, priority 2013, published 2020)

Experiments:
[1] = system: lymphocytes from draining lymph nodes; assay: Lymphocyte viability test (MTT); format: cell-based; settings: 48 hours
Protocol: A lymphocyte viability test was performed to evaluate the cytotoxicity of montanine using a colorimetric MTT [3-(4,5-dimethylthiazol-2-yl)-2,5-diphenyl tetrazolium bromide] assay, as described by Tomita T. et al. 2006. Animals were euthanized and their draining lymph nodes (popliteal and inguinal) were removed aseptically. A single cell suspension was prepared, grown in triplicate (5×10^5 cells/well in a 96 well plate) and treated with montanine at the dosages (0.01 μM, 0.1 μM, 1 μM, 10 μM and 100 μM) for 48 hours at 37° C. at 5% CO2 in RPMI medium. After incubation, MTT (0.5 mg/ml) was added to each well and the plate was placed in the stove again and after 4 hours the supernatant was removed and 50 μI of dimethyl sulphoxide (DMSO, Sigma) were added. After the plate was shaken to dissolve the MTT formazan crystals, optical density (OD) of each well was measured at 570 nm using a microplate ELISA reader.

healthy mice = assay: Immunosuppression assay in healthy animals (complete blood count); format: in vivo; settings: 0.5 or 1.5 mg/kg every 12 hours for 3 days, then 3 days without treatment
Protocol: An immunosuppression assay in healthy animals was performed to assess the role of montanine as an immunosuppressive agent. 20 male, healthy mice of 8-12 weeks of age were used for examining the whole blood (complete blood count—parameters of: total of white blood cells (WBC); % lymphocytes (Lin %), lymphocytes/mm3 (Lin mm30; % monocytes (Mon %); monocytes/mm3 (Mon mm3); % granulocytes (Gran %); granulocytes/mm3 (Gran/mm3); total of red blood cells (RBC); hemoglobin (HGB) and total of platelets (PLQ)) of animals, which were divided as follows: healthy animals (with no treatment given) (n=4), animals treated with 0.5 or 1.5 mg/kg de montanine/12-12 hours (n=8/group). Whole blood was collected at day 0 for basal analysis of the blood parameters of the complete blood count in all animals, they were then treated for 3 days with the two doses and on the third day blood was collected again for complete blood count analysis; also, animals were still alive for three more days without any treatment for a new blood collection (FIG. 9).

[2] = system: lymphocytes from draining lymph nodes; assay: Lymphocyte proliferation assay (MTT), LPS or ConA stimulated; format: cell-based, BALB/c mice; settings: 1 μM, 48 h
Protocol: The in vitro lymphocyte proliferation was performed using the MTT colorimetric assay described by Tomita T et al. 2006. BALB/c mice were euthanized and their draining lymph nodes were removed aseptically. A single cell suspension was prepared, grown in triplicate (5×10^5 cells/well in a 96 well plate) and treated with montanine at the dosages of 1 μM for 48 h at 37° C. at 5% CO2 in RPMI medium containing […] lipopolysaccharide (LPS) or […] of conconavalin A (ConA) or RPMI medium alone as a culture control. After incubation, MTT (0.5 mg/ml) was added to each well and the plate was placed in the stove again and after 4 hours the supernatant was removed and 50 μI of dimethyl sulphoxide (DMSO, Sigma) were added. […] After the plate was shaken to dissolve the formazan crystals, optical density (OD) of each well was measured at 570 nm.
LPS acts primarily on the B cell receptor and the Toll-like receptor 4 (TLR4), molecules that are present on the surface of B lymphocytes, thus acting on these cells. ConA acts on several receptors containing glycoproteins or lipoproteins, stimulating both lymphocytes both but acting preferably on T lymphocytes.

lymphocyte migration = settings: 100 micrograms/mL, vs placebo; cited from earlier work
synovial fibroblasts = assay: Synovial fibroblast invasion test (matrigel inserts); format: cell-based; settings: 1 μM, 24 h, five lines tested, vs DMSO vehicle
Protocol: To evaluate the invasion of synovial fibroblasts into matrigel inserts (collagen matrix) a BD kit (Franklin Lakes, N.J., USA) was used, and the test was performed in accordance with the manufacturer specifications.
When cells reached 70-80% confluence, they were trypsinized with trypsin-EDTA for digestion. Then, 2×10^4 cells were resuspended in 500 μI of free culture medium of fetal calf serum and placed on top of the insert. Montanine at a dose of 1 μM or the same concentration of vehicle (DMSO) was added on top of the insert with the cells. At the lower compartment 750 μI of culture medium with 10% fetal bovine serum was added. The plate was incubated at 37° C. for 24 h in a stove with 5% CO2. After the incubation period, the top of the chamber was cleaned with a swab, stained with crystal violet dye, and the total number of cells that invaded the Matrigel membrane was counted in an optical microscope at 100× magnification. Experiments were performed in duplicate.

[3] = system: collagen type II-induced arthritis in DBA/1J mice; assay: Collagen-induced arthritis (CIA) model with prophylactic treatment; format: in vivo
Protocol: The chronic arthritis model most widely used in the world literature is the model of collagen type II-induced arthritis (CIA). Said model shares many pathological features with the disease, such as type II collagen (CM), the major cartilage protein and one of the potential RA self-antigens. […]
After the boost injection, treatment at dosages of 0.05; 0,25 and 0.5 mg/kg was started and continued for 15 days (twice daily, intraperitoneally) and animals were monitored daily for clinical signs of the disease.
Animals were monitored daily for analyzing the clinical signs of arthritis by means of the severity score as follows: 0—no signs of disease; 1—mild erythema and edema; 2—moderate erythema and edema; 3—severe erythema and edema extending from the knee to the metatarsus; 4—severe erythema and edema with loss of function. […]
(§1) The tibio-tarsal joints of DBA/1 J animals were isolated and immersed in 10% buffered formalin for fixation for 24 hours. […] All the cuts were assessed under a microscope by two blinded observers, and the images captured by digital camera.

[4] = system: collagen type II-induced arthritis in DBA/1J mice; assay: Collagen-induced arthritis (CIA) model with therapeutic treatment; format: in vivo
Protocol: CIA induction is performed by following the aforementioned protocol.
After the boost injection, animals were monitored daily for clinical signs of the disease and treatment with montanine at 0.5 and 1.5 mg/kg is started on the day of clinical detection of CIA. Animals given sterile saline, the treatment vehicle, were deemed as the positive control group, i.e. untreated. The drug was administered twice daily for 10 days by the intraperitoneal route.
Animals were monitored daily for analyzing the clinical signs of arthritis by means of the severity score as follows: 0-no signs of disease; 1-mild erythema and edema; 2-moderate erythema and edema; 3-severe erythema and edema extending from the knee to the metatarsus; 4-severe erythema and edema with loss of function. The total score is the average of the scores on the legs from the onset of the disease.
Articular hypernociception was assessed as previously described by Pinto LG et al. 2010. For this model, a polypropylene tip was adapted to the manual force transducer, a force was applied on the subplantar surface of the paw producing tibiotarsal bending motion. The automatic pressure meter recorded the strength of the applied force when the paw is removed. The assay is repeated 3 times sequentially to provide a consistent measurement, the limiar being expressed in grams (g).
as §1, with “hours. Then, tissues were decalcified in 10% trichloroacetic acid (TCA) for approximately 18 hours. These tissues were dehydrated and embedded in paraffin blocks. Six pm-thick cuts were arranged on a microscope slide.” for “hours.”

[5] = system: mBSA-induced arthritis in Balb-C mice; assay: Antigen-induced arthritis (AIA) model, mBSA-induced monoarthritis; format: in vivo
Protocol: Antigen-induced arthritis (AIA) is an animal model of arthritis that is broadly described and used in worldwide literature. One of the inducing antigens in this model in Balb-C mice is methylated bovine serum albumin (mBSA), which, after systemic immunization (subcutaneous injection) is injected into the joint.
Briefly, mice were immunized in three steps with mBSA (day-0, day-7 and day-14), the first step comprising […] of mBSA protein in an emulsion of 0.1 mL of complete Freund's adjuvant's (CFA) and 0.1 mL of sterile saline solution (0.9% sodium chloride), the second and third steps were performed with the same protein concentration, the same sterile saline solution concentration and the same adjuvant concentration, but in these steps incomplete Freund's adjuvant (IFA) was used; 3 weeks after the first immunization (day 21) mBSA at a concentration of 30 ug/mL were injected into the femorotibial joint (knee) and the contralateral knee was administered with sterile saline only and serves as the control of the experiment (Grespan et al. 2008). […] Treatment with montanine was given twice daily, one day before intra-articular challenge, at the day of the challenge and at day of death, by intraperitoneal route and diluted in saline. Doses tested were 0.3; 1; 3 mg/kg. One group of animals received the treatment vehicle (saline) for control purposes, said group being designated positive control. The experiment is terminated at day 22 (24 hours after challenge and treatment) when animals were euthanized to collect the joint lavage fluid. Lavage was performed using a PBS-EDTA solution and then the number of leukocytes existing in the joint was counted in a Neubauer chamber at a 1:2 dilution with Turk's solution. Furthermore, pain of the animals was assessed in a digital analgesia-meter (von Frey) prior to intra-articular injection at time 0 (zero), 3, 5 and 24 hours after intra-articular challenge.

[6] = 0.5 mg/kg i.p. twice daily for 10 days

For `CO[C@H]1C=C2[C@H]3C[N@@](Cc4cc5c(cc43)OCO5)[C@H]2C[C@@H]1O` [montanine], the lymphocyte viability ([1]; 0.01 μM, 0.1 μM and 1 μM) was “did not alter cell viability”, the lymphocyte viability ([1]; 10 μM) was “no significant difference between the cell group and the group treated with the montanine at 10 μM, however, decreased cell viability can be seen” and the lymphocyte viability ([1]; 100 μM) was “decreased cell viability can be seen, which was higher in the 100 μM dose”. For the same compound, the “highest dose that did not exhibit any cytotoxic effects on the cells” value ([1]; lymphocytes, MTT) was 1 µM, the “immunosuppression (complete blood count)” value (healthy mice) was “does not lead to immunosuppression in any of the tested dosages” and the “lymphocyte proliferation stimulated by ConA” value ([2]; ConA) was “significantly decreased”. The “lymphocyte proliferation stimulated by LPS” value ([2]; LPS) was “had no effect”, the “anti-inflammatory effect on the lymphocyte migration model” value (lymphocyte migration) was “unable to generate a different effect than the placebo” and the “invasion of synovial fibroblasts” value (synovial fibroblasts) was “reduced the invasion of synovial fibroblasts of the five lines tested”. The “histological parameters of the joint” value ([3]; 0.5 mg/kg i.p. twice daily for 15 days) was “improved all the histological parameters of the joint, except for synovial hyperplasia”, the arthritis clinical score ([3]; 0.25 and 0.5 mg/kg i.p. twice daily, from day 8 of treatment) was “reduced clinical score” and the arthritis clinical score ([4]; 0.5 mg/kg i.p. twice daily) was “reduction of the clinical score from the third day of treatment”. For the same compound, the “histological parameters of the joint” value [4, 6] was “improved all the histological parameters, except for synovial hyperplasia”, the “pain (articular nociception)” value [4, 6] was “reduced pain” and the “pain (joint hypernociception), onset of decrease” value ([5]; 3 mg/kg i.p. twice daily) was “decrease as of 3 hours”. For the same compound, the “pain (joint hypernociception, von Frey)” value ([5]; 0.3, 1, 3 mg/kg i.p. twice daily, 0, 3, 5 and 24 hours after intra-articular challenge) was “reduction in pain at all tested doses” and the “total leukocyte migration to the femorotibial joint” value ([5]; 0.3, 1, 3 mg/kg i.p., 24 hours after challenge, compared with saline group) was “significantly reduced at all three doses”.
